Measured values taken from US8802128B2, “Steroid-containing sustained release intraocular implants and related methods” (Allergan, Inc., priority 2006, dated 2014).

Tests used:
[1] = in vivo; cited from earlier work
[2] = Relative water solubility of the steroids; type: physicochemical

| SMILES | eyes with increase in brown pigment in the iris [1] | water solubility relative to beclomethasone dipropionate (times more soluble) [2] |
| --- | --- | --- |
| CC(C)OC(=O)CCC/C=C\C[C@@H]1[C@@H](CC[C@@H](O)CCc2ccccc2)[C@H](O)C[C@@H]1O [latanoprost] | 5-15 % of human eyes |  |
| CC1(C)O[C@@H]2C[C@H]3[C@@H]4CCC5=CC(=O)C=C[C@]5(C)[C@@]4(F)[C@@H](O)C[C@]3(C)[C@]2(C(=O)CO)O1 [triamcinolone acetonide] |  | about 150 times |
